According to PMC4121618 (Molecular Pain, 2014):
Read-outs that look alike come from different tables or passages of the source.

How the values were obtained:
human MOP receptors [1] = target: T1, human MOP receptors (Homo sapiens, UniProt P35372); experiment: [35S]GTPγS functional assay in CHOhMOP cell membranes; assay type: biochemical; set-up: expressed in transfected cells; host or cells: CHO cells; details: for Emax: read-out: [35S]GTPγS functional assay Emax
human MOP receptors [2] = target: T1, human MOP receptors; experiment: Calcium mobilization assay in CHOhMOP cells expressing Gαqi5; assay type: cell-based; set-up: expressed in transfected cells; host or cells: CHO cells stably co-expressing Gαqi5; details: for Emax: read-out: Calcium mobilization assay Emax
DOP receptor [3] = target: T2, DOP receptor (Rattus norvegicus, UniProt P33533); experiment: Radioligand binding assay, DOP receptor, rat brain membranes ([3H][Ile5,6]deltorphin II); details: for Selectivity ratio DOP/MOP: Ki ratio, rat brain membranes
T2 construct: from tissue; host or cells: Sprague-Dawley rat brain membranes
T2 sequence (P33533 whole entry): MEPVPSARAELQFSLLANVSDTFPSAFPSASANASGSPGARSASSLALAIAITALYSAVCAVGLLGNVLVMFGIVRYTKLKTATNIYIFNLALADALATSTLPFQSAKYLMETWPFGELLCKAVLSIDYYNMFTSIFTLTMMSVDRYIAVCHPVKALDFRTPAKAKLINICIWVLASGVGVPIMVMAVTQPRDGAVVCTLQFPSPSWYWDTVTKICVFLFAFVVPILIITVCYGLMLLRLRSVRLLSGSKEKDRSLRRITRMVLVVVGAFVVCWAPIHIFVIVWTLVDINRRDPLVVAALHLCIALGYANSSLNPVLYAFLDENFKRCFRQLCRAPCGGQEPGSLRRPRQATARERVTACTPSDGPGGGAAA

mice [4] = experiment: PPQ abdominal stretching test; assay type: in vivo; details: for ED50: Mus musculus, sc, PPQ abdominal stretching test, read-out: ED50 (95% CL) PPQ; for Times more active than oxycodone (antinociceptive potency): maximum over hot-plate, tail-flick and PPQ assays
mice [5] = experiment: Tail-flick test; assay type: in vivo; details: s.c.; for ED50: Mus musculus, sc, 20 min, tail-flick test, 20 min after dosing, read-out: ED50 (95% CL) TF
MOP receptor [6] = target: T3, MOP receptor (Rattus norvegicus, UniProt P33535); experiment: Radioligand binding assay, MOP receptor, rat brain membranes ([3H]DAMGO)
T3 construct: from tissue; host or cells: Sprague-Dawley rat brain membranes
T3 sequence (P33535 whole entry): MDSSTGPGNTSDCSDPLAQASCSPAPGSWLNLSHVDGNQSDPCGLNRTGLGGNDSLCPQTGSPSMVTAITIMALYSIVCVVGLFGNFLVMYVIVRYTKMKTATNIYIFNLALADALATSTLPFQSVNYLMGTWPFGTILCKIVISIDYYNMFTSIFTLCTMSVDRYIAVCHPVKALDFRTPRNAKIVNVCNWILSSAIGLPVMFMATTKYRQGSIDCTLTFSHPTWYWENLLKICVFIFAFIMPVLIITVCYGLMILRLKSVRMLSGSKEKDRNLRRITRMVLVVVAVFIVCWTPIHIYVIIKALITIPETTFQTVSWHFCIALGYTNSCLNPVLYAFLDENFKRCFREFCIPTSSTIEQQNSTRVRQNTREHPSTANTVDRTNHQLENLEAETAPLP

KOP receptor [7] = target: T4, KOP receptor (Rattus norvegicus, UniProt P34975); experiment: Radioligand binding assay, KOP receptor, rat brain membranes ([3H]U69,593); details: for Selectivity ratio KOP/MOP: Ki ratio, rat brain membranes
T4 construct: from tissue; host or cells: Sprague-Dawley rat brain membranes
T4 sequence (P34975 whole entry): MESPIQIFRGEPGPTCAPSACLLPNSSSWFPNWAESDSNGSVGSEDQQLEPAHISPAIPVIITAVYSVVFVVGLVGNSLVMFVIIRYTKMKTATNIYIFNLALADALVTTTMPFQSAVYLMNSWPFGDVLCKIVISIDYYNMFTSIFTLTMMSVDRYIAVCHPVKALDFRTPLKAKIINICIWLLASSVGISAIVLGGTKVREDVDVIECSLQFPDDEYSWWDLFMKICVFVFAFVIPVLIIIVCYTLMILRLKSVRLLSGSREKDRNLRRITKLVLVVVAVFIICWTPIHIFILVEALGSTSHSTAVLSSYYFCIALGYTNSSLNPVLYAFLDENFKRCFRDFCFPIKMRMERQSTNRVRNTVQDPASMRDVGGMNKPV

mice [8] = experiment: Hot-plate test; assay type: in vivo; details: s.c.; for ED50: Mus musculus, sc, 0.5 h, hot-plate test, 30 min after dosing, read-out: ED50 (95% CL) HP
DOP receptor [9] = target: T2, DOP receptor; details: cited from earlier work; for Ki: read-out: Ki DOP
MOP receptor [10] = target: T3, MOP receptor; details: read-out: Ki MOP; cited from earlier work
KOP receptor [11] = target: T4, KOP receptor; details: cited from earlier work; for Ki: read-out: Ki KOP
mice [12] = system: mice; set-up: method as in PMID 16033285; details: s.c., tail-flick test, ref [30]; cited from earlier work
mice [13] = system: mice; set-up: method as in PMID 16033285; details: s.c., PPQ abdominal stretching test, ref [30]; cited from earlier work
mice [14] = system: mice; set-up: method as in PMID 16033285; details: s.c., hot-plate test, ref [30]; cited from earlier work
[15] = system: human MOP receptor in CHO cells; set-up: method as in PMID 14600248; details: CHOhMOP, Thompson et al.; ref [35]; read-out: [35S]GTPγS binding EC50; cited from earlier work
human MOP receptor = system: human MOP receptor; set-up: method as in PMID 22002663; details: HEK293 cells co-expressing human MOP receptor and Gαqi3, ref [37], cited from earlier work
[16] = system: C6rMOP cells (rat MOP receptor); set-up: method as in PMID 16291875; details: ref [36], read-out: Potency EC50; cited from earlier work
[17] = target: T5, human KOP receptors (CHOhKOP) (Homo sapiens, UniProt P41145); experiment: Binding assay in CHOhKOP cell membranes ([3H]diprenorphine)
T5 construct: expressed in transfected cells
T5 sequence (P41145 whole entry): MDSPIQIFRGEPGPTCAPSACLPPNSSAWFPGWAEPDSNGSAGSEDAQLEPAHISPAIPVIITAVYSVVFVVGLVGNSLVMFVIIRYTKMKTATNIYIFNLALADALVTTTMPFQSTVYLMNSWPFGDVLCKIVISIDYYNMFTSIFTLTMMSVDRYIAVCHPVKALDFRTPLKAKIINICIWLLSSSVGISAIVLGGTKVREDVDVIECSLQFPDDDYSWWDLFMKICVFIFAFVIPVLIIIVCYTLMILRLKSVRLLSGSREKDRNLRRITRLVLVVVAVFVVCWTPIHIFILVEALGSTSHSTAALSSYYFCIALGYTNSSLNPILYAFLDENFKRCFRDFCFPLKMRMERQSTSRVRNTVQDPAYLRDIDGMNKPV

[18] = target: T6, rat DOP receptors (C6rDOP) (Rattus norvegicus, UniProt P33533); experiment: Binding assay in C6rDOP cell membranes ([3H]diprenorphine)
T6 construct: expressed in transfected cells
T6 sequence (P33533 whole entry): as the sequence (P33533 whole entry) above

[19] = target: T7, recombinant rat MOP receptor expressed in C6 glioma cells (Rattus norvegicus, UniProt P33535); experiment: Binding assay in C6rMOP cell membranes ([3H]diprenorphine)
T7 construct: expressed in transfected cells
T7 sequence (P33535 whole entry): as the sequence (P33535 whole entry) above

MOP receptor [20] = system: MOP receptor; set-up: method as in PMID 15857143; details: ref [13]; cited from earlier work
animals = details: ref [14]; cited from earlier work
[21] = absolute stimulation, set as 100%

T1 sequence (P35372 whole entry): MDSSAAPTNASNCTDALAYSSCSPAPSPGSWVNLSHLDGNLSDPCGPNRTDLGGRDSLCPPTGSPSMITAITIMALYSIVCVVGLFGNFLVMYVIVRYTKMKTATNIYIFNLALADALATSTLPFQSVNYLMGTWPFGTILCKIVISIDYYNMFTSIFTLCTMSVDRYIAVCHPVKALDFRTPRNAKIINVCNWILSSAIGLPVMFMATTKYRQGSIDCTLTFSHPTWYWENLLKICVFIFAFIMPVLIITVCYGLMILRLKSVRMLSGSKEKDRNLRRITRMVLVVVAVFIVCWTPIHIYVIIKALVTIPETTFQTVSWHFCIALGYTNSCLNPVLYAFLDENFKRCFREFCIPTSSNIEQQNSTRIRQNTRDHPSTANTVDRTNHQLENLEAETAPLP

Row | SMILES | EC50 (human MOP receptors [1]) [nM] | Emax (human MOP receptors [1]) [%] | Ki (DOP receptor [3]) [nM] | Selectivity ratio DOP/MOP (DOP receptor [3]) | ED50 (mice [4]) [mg/kg] | ED50 (mice [5]) [mg/kg] | Ki (MOP receptor [6]) [nM] | EC50 (human MOP receptors [2]) [nM] | Emax (human MOP receptors [2]) [%] | Ki (KOP receptor [7]) [nM] | Selectivity ratio KOP/MOP (KOP receptor [7]) | ED50 (mice [8]) [mg/kg] | Ki (DOP receptor [9]) [nM] | Ki (KOP receptor [11]) [nM] | ED50 (95% CL) TF (mice [12]) | ED50 (95% CL) PPQ (mice [13]) | Times greater potency than oxycodone and 14-OMC, calcium mobilization (human MOP receptors [2]; CHOhMOP Gαqi5 cells) | ED50 (95% CL) HP (mice [14]) | other results
1 | C[C@@H](NC(=O)[C@@H](N)Cc1ccc(O)cc1)C(=O)NCC(=O)N(C)[C@@H](Cc1ccccc1)C(=O)NCCO [DAMGO, [D-Ala^2,Me-Phe^4,Gly-ol^5]enkephalin, reference compound] |  |  |  |  |  |  |  |  |  |  |  |  |  |  |  |  |  |  | Maximal DAMGO stimulation in [35S]GTPγS functional assay (human MOP receptors [1]; [21]): 225 ± 32%; Maximal DAMGO stimulation in calcium mobilization assay (human MOP receptors [2]; [21]): 217 ± 21%
2 | COc1ccc2c3c1O[C@H]1C(=O)CC[C@@]4(OC)[C@@H](C2)N(C)CC[C@]314 [14-OMC, 14-O-methyloxycodone, reference compound] | 325 ± 94 | 137 ± 55 | 116 ± 15 | 3 | 0.22 | 0.8 | 35.3 ± 2.1 | 973 ± 204 | 72 ± 7 | 454 ± 6 | 13 | 1.02 |  |  |  |  |  |  | 
3 | COc1ccc2c(c1OC)C13C=C(C#N)CCC1(O)C(C2)N(C)CC3 (stereo not shown) [compound 2] | 42.5 ± 14.9 | 97 ± 15 |  |  |  |  |  | 116 ± 9 | 69 ± 7 |  |  |  | 107 ± 5 | 364 ± 7 | 0.12 (0.061-0.23) mg/kg, s.c. | 0.026 (0.012-0.055) mg/kg, s.c. | up to 10 times | 0.15 (0.054-0.41) mg/kg, s.c. | Selectivity ratio DOP/MOP (DOP receptor [9]): 44; Ki (MOP receptor [10]): 2.44 ± 0.13 nM; Selectivity ratio KOP/MOP (KOP receptor [11]): 149
4 | COc1ccc2c(c1O)C13C=C(C#N)CCC1(OC)C(C2)N(C)CC3 (stereo not shown) [compound 3] | 26.2 ± 1.7 | 85 ± 3 |  |  |  |  |  | 140 ± 21 | 61 ± 6 |  |  |  | 197 ± 29 | 378 ± 155 | 0.21 (0.11-0.40) mg/kg, s.c. | 0.11 (0.072-0.16) mg/kg, s.c. | up to 10 times | 0.25 (0.11-0.59) mg/kg, s.c. | Selectivity ratio DOP/MOP (DOP receptor [9]): 37; Ki (MOP receptor [10]): 5.38 ± 0.42 nM; Selectivity ratio KOP/MOP (KOP receptor [11]): 70
5 | COc1ccc2c(c1O)C13C=C(C#N)CCC1(O)C(C2)N(C)CC3 (stereo not shown) [compound 1] | 273 ± 24 | 98 ± 4 |  |  |  |  |  | 957 ± 233 | 57 ± 4 |  |  |  | 498 ± 79 | 1650 | 1.88 (1.25-2.83) mg/kg, s.c. | 0.18 (0.076-0.42) mg/kg, s.c. | up to 10 times | 0.50 (0.12-2.02) mg/kg, s.c. | 
6 | COc1ccc2c3c1O[C@H]1C(=O)CC[C@@]4(O)[C@@H](C2)N(C)CC[C@]314 [Oxycodone, oxycodone, reference compound] |  | 92 ± 9 |  |  |  |  |  |  | 38 ± 3 |  |  |  |  |  | 0.94 (0.40-2.30) mg/kg, s.c. | 0.38 (0.19-0.75) mg/kg, s.c. |  | 1.37 (0.48-3.92) mg/kg, s.c. | EC50 [15]: 1400 nM; Efficacy, changes in intracellular calcium levels (human MOP receptor): 100%; EC50 (human MOP receptor; read-out: Potency, changes in intracellular calcium levels): 1740 nM; EC50 [16]: 373 nM
7 | COc1ccc2c(c1OC)C13C=C(C(N)=O)CCC1(OC)C(C2)N(C)CC3 (stereo not shown) [compound 4] | 25.6 ± 9.5 | 107 ± 26 | 28.8 ± 2.3 | 18 | 0.18 | 1.34 | 1.61 ± 0.05 | 56.1 ± 11.3 | 59 ± 8 | 105 ± 45 | 65 | 1.3 |  |  |  |  |  |  | Times less active than compound 1, hot-plate (mice [8]): about 3 times
8 | COc1ccc2c3c1OC1C(C#N)=CCC4(OC)C(C2)N(C)CCC314 (stereo not shown) [compound 6] | 25.1 ± 3.6 | 121 ± 27 | 239 ± 40 | 32 | 0.003 | 0.12 | 7.39 ± 0.34 | 173 ± 21 | 84 ± 10 | 194 ± 68 | 26 | 0.089 |  |  |  |  | up to 10 times |  | Times more potent than 14-OMC, PPQ (mice [4]; s.c.): 72 times; Times more potent than analogue 3, PPQ (mice [4]; s.c.): ~37 times; Times more active than oxycodone (antinociceptive potency) (mice [4]; s.c.): up to 165 times; Times less potent than analogue 5, tail-flick (mice [5]): 3 times; Times more potent than 14-OMC, tail-flick (mice [5]): 7 times; Times more potent than analogue 3, tail-flick (mice [5]): ~2 times; Increase in binding to the MOP receptor vs 6-keto counterpart 14-OMC (MOP receptor [6]; rat brain membranes): about 5 times; Times more potent than 14-OMC, hot-plate (mice [8]): 11 times; Times more potent than analogue 3, hot-plate (mice [8]): ca. 3 times
9 | COc1ccc2c(c1OC)C13C=C(C#N)C=CC1(OC)C(C2)N(C)CC3 (stereo not shown) [compound 5] | 1.64 ± 0.19 | 133 ± 7 | 30.3 ± 2.9 | 56 | 0.0023 | 0.04 | 0.54 ± 0.04 | 21.7 ± 5.5 | 70 ± 8 | 200 ± 40 | 370 | 0.08 |  |  |  |  |  |  | Ki [17]: 229 nM; MOP selectivity vs. KOP ([17]; recombinant receptors, CHOhKOP vs C6rMOP): 327 times; Times more active than oxycodone (antinociceptive potency) (mice [4]; s.c.): up to 165 times; Times more potent than DAMGO, calcium mobilization (human MOP receptors [2]; CHOhMOP Gαqi5 cells): about 2 times; Ki [18]: 56 nM; MOP selectivity vs. DOP ([18]; recombinant receptors, C6rDOP vs C6rMOP): 80 times; Ki [19]: 0.7 nM
10 | COC12CCC(=O)C3Oc4c(O)ccc5c4C31CCN(C)C2C5 (stereo not shown) [14-O-methyloxymorphone] |  |  |  |  |  |  |  |  |  |  |  |  |  |  |  |  |  |  | Times increased binding affinity at the MOP receptor vs oxymorphone (MOP receptor [20]): 9 times; Times more potent in inducing an antinociceptive effect than oxymorphone (animals): up to 40 times
